Biological target: T1, ULK2 (Homo sapiens, UniProt Q8IYT8)
T1 construct: purchased Thermo Fisher Scientific (Life Technologies) SelectScreen
Test: SelectScreen LanthaScreen
Type: binding
Conditions: read-out: % displacement
Outline: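 SelectScreen broad panel; activity (Z'LYTE, Adapta) plus binding formats. ATP: Km app for CSF1R Z'LYTE; 10 for CAMK1 Adapta. Readout = % per kinase.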

T1 sequence (Q8IYT8 whole entry): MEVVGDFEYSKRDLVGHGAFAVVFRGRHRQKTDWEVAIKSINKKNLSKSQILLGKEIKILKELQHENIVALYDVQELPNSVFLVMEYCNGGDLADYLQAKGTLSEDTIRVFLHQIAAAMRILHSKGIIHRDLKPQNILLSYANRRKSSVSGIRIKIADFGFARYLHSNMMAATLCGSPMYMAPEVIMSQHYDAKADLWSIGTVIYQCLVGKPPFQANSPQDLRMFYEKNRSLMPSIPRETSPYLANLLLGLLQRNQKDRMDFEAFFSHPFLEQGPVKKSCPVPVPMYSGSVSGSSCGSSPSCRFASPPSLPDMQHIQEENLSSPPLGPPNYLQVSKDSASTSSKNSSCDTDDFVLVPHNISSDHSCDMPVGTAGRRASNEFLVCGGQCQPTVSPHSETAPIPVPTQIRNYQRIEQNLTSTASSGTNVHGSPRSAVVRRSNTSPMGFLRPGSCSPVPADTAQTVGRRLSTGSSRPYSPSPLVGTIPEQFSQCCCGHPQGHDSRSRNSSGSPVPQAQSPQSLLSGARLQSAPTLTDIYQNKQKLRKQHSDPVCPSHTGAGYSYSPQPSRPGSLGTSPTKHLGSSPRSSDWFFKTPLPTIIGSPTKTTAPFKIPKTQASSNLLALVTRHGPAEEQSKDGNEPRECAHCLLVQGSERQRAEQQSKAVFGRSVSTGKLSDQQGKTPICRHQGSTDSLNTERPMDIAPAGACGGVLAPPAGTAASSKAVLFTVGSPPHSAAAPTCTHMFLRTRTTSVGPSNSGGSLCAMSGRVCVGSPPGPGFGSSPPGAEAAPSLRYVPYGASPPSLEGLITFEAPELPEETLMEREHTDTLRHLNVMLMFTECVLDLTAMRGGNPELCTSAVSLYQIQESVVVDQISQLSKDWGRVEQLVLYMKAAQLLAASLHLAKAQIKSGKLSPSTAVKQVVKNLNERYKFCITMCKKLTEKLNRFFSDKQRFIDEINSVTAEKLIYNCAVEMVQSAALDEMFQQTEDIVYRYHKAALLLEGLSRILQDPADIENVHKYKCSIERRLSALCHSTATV

Q: With `CN(C(=O)CN1CCOCC1)c1ccc2sc3c(-c4cccc5c(=O)cc(N6CC7CCC(C6)O7)oc45)cccc3c2c1` [NU5455] as the compound, how does the inhibition at 1 µM read?
A: 0.9%
